Assay results published in patent US6664252B2, “4-aminopyrrolo[2,3-d]pyrimidine compounds specific to adenosine A2a receptor and uses thereof” (OSI Pharmaceuticals, Inc., priority 1999, dated 2003).
One block for each compound: values may come before it.

Experiments:
[1] = target: T1, human A2b receptor subtype (Homo sapiens, UniProt P29275); test: Adenosine 2b receptor subtype competition radioligand binding, [3H]DPCPX, HEK293 membranes; details: for Ki: Table 14, read-out: Binding Data K1 (nM) A2B
T1 construct: expressed in transfected cells; host or cells: HEK293
T1 sequence (P29275 1-332): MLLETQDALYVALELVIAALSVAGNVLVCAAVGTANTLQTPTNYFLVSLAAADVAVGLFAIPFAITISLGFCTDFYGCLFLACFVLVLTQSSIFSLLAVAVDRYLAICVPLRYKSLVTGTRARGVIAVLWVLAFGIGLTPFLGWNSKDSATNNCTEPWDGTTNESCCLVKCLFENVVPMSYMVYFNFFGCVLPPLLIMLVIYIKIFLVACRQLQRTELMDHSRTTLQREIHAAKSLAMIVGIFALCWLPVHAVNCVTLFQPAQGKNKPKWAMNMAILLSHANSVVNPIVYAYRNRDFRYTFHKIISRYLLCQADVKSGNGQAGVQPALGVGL

[2] = target: T2, human A1 adenosine receptor (Homo sapiens, UniProt P30542); details: reported value; cited from earlier work
T2 sequence (P30542 1-326): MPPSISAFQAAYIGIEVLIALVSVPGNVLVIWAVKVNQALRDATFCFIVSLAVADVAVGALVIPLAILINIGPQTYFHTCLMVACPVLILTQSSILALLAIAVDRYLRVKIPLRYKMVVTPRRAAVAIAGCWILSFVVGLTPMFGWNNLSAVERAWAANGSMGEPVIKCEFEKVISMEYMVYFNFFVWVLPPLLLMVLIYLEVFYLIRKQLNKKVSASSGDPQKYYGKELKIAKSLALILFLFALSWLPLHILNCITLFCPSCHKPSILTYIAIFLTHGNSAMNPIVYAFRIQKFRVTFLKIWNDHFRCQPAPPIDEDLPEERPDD

human adenosine A1 (A1R) = target: T3, human adenosine A1 (A1R) (Homo sapiens, UniProt P30542); test: Yeast β-Galactosidase reporter gene assay, inhibition of NECA-induced activity, strain CY12660; type: cell-based; details: Table 10
T3 construct: yeast alpha-factor (MFalpha1) prepro leader (N, cleaved yes); expressed in transfected cells; host or cells: Saccharomyces cerevisiae (strain CY12660 and related strains carrying plasmid p5095)
T3 sequence (P30542 1-326): T2 sequence (P30542 1-326)

[3] = target: T4, human A2a receptor subtype (Homo sapiens, UniProt P29274); test: Adenosine 2a receptor subtype competition radioligand binding, [3H]CGS-21680, HEK293 membranes; details: Table 13, in %; footnote 8: % activity @ 10 μM
T4 construct: expressed in transfected cells; host or cells: HEK-293 (Cadus clone #5)
T4 sequence (P29274 whole entry): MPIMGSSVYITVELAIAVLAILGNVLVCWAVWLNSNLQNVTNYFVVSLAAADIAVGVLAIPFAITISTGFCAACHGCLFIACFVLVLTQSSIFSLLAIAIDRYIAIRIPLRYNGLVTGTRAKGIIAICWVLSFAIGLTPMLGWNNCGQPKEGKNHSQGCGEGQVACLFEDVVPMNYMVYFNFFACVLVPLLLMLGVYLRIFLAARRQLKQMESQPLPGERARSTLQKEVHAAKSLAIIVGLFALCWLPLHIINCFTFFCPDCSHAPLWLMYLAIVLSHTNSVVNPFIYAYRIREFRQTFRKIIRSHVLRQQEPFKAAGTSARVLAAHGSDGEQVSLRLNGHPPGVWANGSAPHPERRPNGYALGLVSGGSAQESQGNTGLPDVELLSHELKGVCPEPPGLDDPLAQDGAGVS

[4] = target: T5, human A1 receptor subtype (Homo sapiens, UniProt P30542); details: Table 13, in %; footnote 8: % activity @ 10 μM
T5 sequence (P30542 1-326): T2 sequence (P30542 1-326)

[5] = target: T6, human A3 receptor subtype (Homo sapiens, UniProt P0DMS8); test: Adenosine 3 receptor competition radioligand binding, [125I]AB-MECA, HEK293 membranes; details: Table 14; read-out: Binding Data K1 (nM) A3
T6 construct: expressed in transfected cells; host or cells: HEK293
T6 sequence (P0DMS8 1-318): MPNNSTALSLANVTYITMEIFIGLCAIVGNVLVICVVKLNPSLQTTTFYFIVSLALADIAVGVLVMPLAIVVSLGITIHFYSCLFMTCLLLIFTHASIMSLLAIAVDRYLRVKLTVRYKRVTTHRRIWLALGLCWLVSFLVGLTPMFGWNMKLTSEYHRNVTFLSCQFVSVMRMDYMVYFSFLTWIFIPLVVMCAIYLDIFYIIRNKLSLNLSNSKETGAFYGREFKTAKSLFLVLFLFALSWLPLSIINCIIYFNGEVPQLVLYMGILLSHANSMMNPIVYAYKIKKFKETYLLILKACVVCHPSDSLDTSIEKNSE

Compound: CC(Cc1ccccc1)Nc1ncnc2c1ncn2[C@@H]1O[C@H](CO)[C@@H](O)[C@H]1O (single isomer, unassigned; (-)) [R-PIA, (−)-N6-(2-phenylisopropyl)-adenosine]
- reported affinity [2]: approximately 50 nM

Compound: Cc1[nH]c2nc(-c3ccccc3)nc(NCCNC(=O)CCN)c2c1C [Compound 1009]
- IC50 (human adenosine A1 (A1R)): > 10000 nM

Compound: CNC(=O)NCCCNc1nc(-c2ccccc2)nc2[nH]c(C)c(C)c12 [Compound 1310]
- % activity, A2a binding [3]: 76%

Compound: Cc1[nH]c2nc(-c3ccccc3)nc(NCCNC(=O)C3(N)CC3)c2c1C [Compound 1313]
- % activity, A2a binding [3]: 65%
- % activity, A1 binding [4]: 30%

Compound: NC(=O)[C@H]1CCCN1c1nc(-c2ccncc2)nc2[nH]c(-c3ccccc3)cc12 [Compound 1609, 1-(6-Phenyl-2-pyridin-4-yl-7H-pyrrolo[2,3-d]pyrimidin-4-yl]-pyrrolidine-2-carboxylic acid amide]
- melting point: 280 to 316 °C (dec.)

Compound: CC(=O)NCCNc1nc(-c2ccccc2)nc2[nH]c(COc3ccccc3)cc12 [Compound 1400, 4-(2-acetylaminoethyl)amino-6-phenoxymethyl-2-phenyl-7H-pyrrolo[2,3d]pyrimidine]
- Ki [1]: 10.3 nM

Further lines, results first:

- melting point: 196 to 197 °C
Compound: CC(=O)NCCNc1nc(-c2ccccc2)nc2[nH]c(COc3ccccc3)cc12 [(25), 4-(2-acetylaminoethyl)amino-6-phenoxymethyl-2-phenyl-7H-pyrrolo[2,3d]pyrimidine]

- Ki [1]: 8.8 nM
Compound: CC(=O)NCCNc1nc(-c2ccccc2)nc2[nH]c(COc3ccc(F)cc3)cc12 [Compound 1401, 4-(2-acetylaminoethyl)amino-6-(4-fluorophenoxy)methyl-2-phenyl-7H-pyrrolo[2,3d]pyrimidine]

- IC50 (human adenosine A1 (A1R)): > 10000 nM
Compound: Cc1[nH]c2nc(-c3ccccc3)nc(NCCN)c2c1C [Compound 1000]

- melting point: 210 to 220 °C (dec.)
Compound: OC[C@H]1CCCN1c1nc(-c2ccncc2)nc2[nH]ccc12 [Compound 1601]

- % activity, A2b binding ([1]; Table 13, in %, footnote 8: % activity @ 10 μM): 30%
Compound: Cc1[nH]c2nc(-c3ccccc3)nc(N[C@H]3CC[C@H](O)CC3)c2c1C [Compound 1305]

- Ki [5]: 60 nM
Compound: CC(=O)NCCNc1nc(-c2ccccc2)nc2[nH]c(COc3ccc(Cl)cc3)cc12 [Compound 1402, 4-(2-acetylaminoethyl)amino-6-(4-chlorophenoxy)methyl-2-phenyl-7H-pyrrolo[2,3d]pyrimidine]

- IC50 (human adenosine A1 (A1R)): > 10000 nM
Compound: Cc1[nH]c2nc(-c3ccccc3)nc(NCCNS(C)(=O)=O)c2c1C [Compound 1007]
